SMILES strings stand for the structures.

Consider `CCC(C)C(CC)C1=NC2=C(c3ccc(Cl)cc3Cl)N=NC(=O)C2=N1` (stereo not shown) [Example 1, 4-(2,4-dichlorophenyl)-2-ethyl-1-(1-ethyl)propyl-imidazo[4,5-d]pyridazin-7-one], for which the melting point lay within 246 to 247 °C.
